The NIST ThermoML archive (doi:10.1021/acs.jced.6b00713)
± gives the expanded uncertainty stated by the source.

Tests used:
[1] = 298.15 K; 101.33 kPa; Liquid; Vibrating tube method
[2] = Boiling temperature at pressure P; conditions: 101.3 kPa; Liquid; Ebulliometric method (Recirculating still)
[3] = refractive index (Na D-line) (dimensionless); conditions: 293.15 K; 101.33 kPa; Liquid; Standard Abbe refractometry

Row | mass density [1] [kg/m3] | Boiling temperature at pressure P [2] [°C] | refractive index [3] | Compound
1 | 940.5 ± 0.1 | 129.1 ± 0.2 | 1.4985 ± 0.0007 | Cc1ccccn1 [2-methylpyridine]
2 | – | 100.10 ± 0.2 | 1.3322 ± 0.0007 | O [water]
